Patent publication US20050176938A1, “Anhydrate/hydrate of an erythromycin derivative and processes for preparing said anhydrate/hydrate” (Chugai Seiyaku Kabushiki Kaisha, priority 2002, published 2005)
Structures can show the parent of a compound that is named as a salt. One block for each molecule: values may come before it.

Experiments:
Format in all cases: physicochemical
[1] = Accelerated testing (stability) of Crystal form D anhydrate and X-hydrate at 40° C. and 60° C. for 1 month, degradants by HPLC; conditions: for Percent Degradants: X-hydrate at about 75% RH
Procedure: Three lots of Crystal form D anhydrate prepared according to the procedure described in Example 2 were stored and dried under reduced pressure in a desiccator containing silica gel. After drying under reduced pressure, the desiccator was charged with air conditioned at a relative humidity of 0% RH to perform accelerated testing of Crystal form D anhydrate at 40° C. for 1 month and at 60° C. for 1 month. Similarly, Crystal form D was stored in a desiccator conditioned at a relative humidity of about 75% RH by an aqueous saturated sodium chloride solution to perform accelerated testing of Crystal form D X-hydrate at 40° C. for 1 month and at 60° C. for 1 month. Before and after accelerated testing, the crystal form was confirmed to be Crystal form D anhydrate or Crystal form D X-hydrate by powder X-ray diffraction spectra.
(§1) The resulting samples were tested for purity by HPLC, and the peak area of each sample was measured by automatic analysis to determine the product percentage by the area percentage method according to the equation below. The HPLC column used was YMC ODS AM303 (4.6×250 mm) with a mobile phase consisting of a solution of acetonitrile: water=1:1 containing PICB-8 (Low UV) reagent, and a UV spectrometer (260 nm) and a PDA (200-400 nm) were used as detectors on 25 μL of each sample solution prepared by dissolving about 20 mg of each sample in a solution of acetonitrile:water=1:1 to a volume of exactly 25 mL.
(§2) Degradants percentage (%)=(degradants peak area×100)/(total of peak areas excluding peaks derived from fumaric acid and control solution)

[2] = Accelerated testing with oxygen at 40° C. for 2 weeks and 1 month, degradants by HPLC; conditions: for Percent Degradants: Oxygen replacement, X-hydrate 75% RH
Procedure: as §1, §2
In the same manner as described in (1) above, Crystal form D was stored and dried under reduced pressure in a desiccator containing silica gel. After drying under reduced pressure, the air in the desiccator was replaced with high-purity oxygen conditioned at a relative humidity of 0% RH to perform accelerated testing of Crystal form D anhydrate at 40° C. for 2 weeks and for 1 month. Similarly, Crystal form D was stored in a desiccator conditioned at a relative humidity of about 75% RH by an aqueous saturated sodium chloride solution and the air in the desiccator was replaced with high-purity oxygen conditioned at a relative humidity of 75% RH to perform accelerated testing of Crystal form D X-hydrate at 40° C. for 2 weeks and for 1 month. The resulting samples were analyzed as described in (1) above. Before and after accelerated testing, the crystal form was confirmed to be kept Crystal form D anhydrate or Crystal form D X-hydrate under each conditions by powder X-ray diffraction spectra.

[3] = Residual solvent level (ethyl acetate) by gas chromatography; conditions: for Residual solvent level: anhydrate before, X-hydrate after conditioning
From the text: The residual solvent level described above can be determined by a known method such as gas chromatography. Gas chromatography is described in detail at B98-B114 of the Practical Guide of the 14th revision of Pharmacopoeia of Japan (published by Hirokawa Publishing Co., 2001) or the like. The measurement error by gas chromatography is normally within about ±1%.
The following examples further illustrate the present invention without, however, limiting the invention thereto. In the following examples, NMR spectra were measured by using a nuclear magnetic resonance spectrometer JNM-ECP500SS (made by JEOL) and only characteristic peaks were shown. Powder X-ray diffraction spectra were measured by using a powder X-ray diffractometer RINT-1100 (made by Rigaku). Residual solvent levels were measured by using a gas chromatograph GC-17A (made by Shimadzu) within an error of about ±1%. The staring material Dihydroxy compound described below (compound 1) can be prepared according to the process described in JPA 1997-100241 or modifications thereof.
Crystal form D anhydrate prepared according to Example 2 and Crystal form D X-hydrate prepared by conditioning said anhydrate according to Example 3 (1) or (2) using an air-circulating dryer (made by Nippon Kansoki), a vibro-fluidized bed dryer VUA-10DJ (made by Chuo Kakohki) or a fluidized bed granulator New Marumerizer NQ-160 (made by Fuji Paudal) were assayed for their residual solvent levels (ethyl acetate) by gas chromatography. Before and after conditioning, the crystal form was confirmed by powder X-ray diffraction spectra to have been transferred from Crystal form D anhydrate into Crystal form D X-hydrate.

- Percent Degradants ([1]; 40° C., Lot 1, anhydrate at 0% RH, listed as X-hydrate): 0.17%
- Percent Degradants ([1]; 40° C., Lot 2, anhydrate at 0% RH, listed as X-hydrate): 0.42%
- Percent Degradants ([1]; 40° C., Lot 3, anhydrate at 0% RH, listed as X-hydrate): 0.22%
- Percent Degradants ([1]; 60° C., Lot 1, anhydrate at 0% RH, listed as X-hydrate): 0.90%
- Percent Degradants ([1]; 60° C., Lot 2, anhydrate at 0% RH, listed as X-hydrate): 0.63%
- Percent Degradants ([1]; 60° C., Lot 3, anhydrate at 0% RH, listed as X-hydrate): 1.53%
- Percent Degradants ([2]; 1 month, Lot 1, anhydrate 0% RH, listed as X-hydrate): 0.66%
- Percent Degradants ([2]; 1 month, Lot 2, anhydrate 0% RH, listed as X-hydrate): 0.72%
- Percent Degradants ([2]; 1 month, Lot 3, anhydrate 0% RH, listed as X-hydrate): 0.93%
- Percent Degradants ([2]; 2 weeks, Lot 1, anhydrate 0% RH, listed as X-hydrate): 0.17%
- Percent Degradants ([2]; 2 weeks, Lot 2, anhydrate 0% RH, listed as X-hydrate): 0.05%
- Percent Degradants ([2]; 2 weeks, Lot 3, anhydrate 0% RH, listed as X-hydrate): 0.18%
- Residual solvent level ([3]; Lot A, Air-circulating dryer, 20-21° C., 58-63% RH (air) 2 hrs, listed as X-hydrate): 636 ppm
- Residual solvent level ([3]; Lot B, Vibro-fluidized bed dryer, 22-28° C., 75 ± 15% RH (nitrogen gas) 4 hrs, listed as X-hydrate): 446 ppm
- Residual solvent level ([3]; Lot C, Fluidized bed granulator, 24-29° C., 75 ± 10% RH (air) 4 hrs, listed as X-hydrate): 424 ppm
- Residual solvent level ([3]; Lot D, Vibro-fluidized bed dryer, 19-26° C., 70-71% RH (nitrogen gas) 4 hrs, listed as X-hydrate): 424 ppm
- Residual solvent level ([3]; Lot E, Air-circulating dryer, 19-28° C., 41-71% RH (air) 72 hrs, listed as X-hydrate): 251 ppm
- residual solvent level compared between the crystal forms ([3]; all the lots): lower
Compound: CC[C@H]1OC(=O)[C@H](C)[C@@H](O[C@H]2C[C@@](C)(OC)[C@@H](O)[C@H](C)O2)[C@H](C)[C@@H](O[C@@H]2O[C@H](C)C[C@H](N(C)C(C)C)[C@H]2O)[C@@]2(C)CC(C)=C(O2)[C@H](C)C(=O)[C@]1(C)OC [Crystal form D X-hydrate, [2S, 4R, 5R, 8R, 9S, 10S, 11R, 12R]-9-[(2,6-dideoxy-3-C-methyl-3-O-methyl-α-L-ribo-hexopyranosyl)oxy]-5-ethyl-4-methoxy-2,4,8,10,12,14-hexamethyl-11-[[3,4,6-trideoxy-3-(isopropylmethylamino)-β-D-xylo-hexopyranosyl]oxy]-6,15-dioxabicyclo[10.2.1]pentadec-14 (1)-ene-3,7-dione (E)-2-butenedioic acid salt (2:1)]
- stability compared between the crystal forms ([1]; 40° C. and 60° C., all the lots): more stable than Crystal form D anhydrate
- stability compared between the crystal forms ([2]; oxygen replacement, 2 weeks and 1 month): more stable than Crystal form D anhydrate

- Percent Degradants ([1]; 40° C., Lot 1, anhydrate at 0% RH, listed as Anhydrate): 1.01%
- Percent Degradants ([1]; 40° C., Lot 2, anhydrate at 0% RH, listed as Anhydrate): 1.38%
- Percent Degradants ([1]; 40° C., Lot 3, anhydrate at 0% RH, listed as Anhydrate): 1.41%
- Percent Degradants ([1]; 60° C., Lot 1, anhydrate at 0% RH, listed as Anhydrate): 2.66%
- Percent Degradants ([1]; 60° C., Lot 2, anhydrate at 0% RH, listed as Anhydrate): 2.52%
- Percent Degradants ([1]; 60° C., Lot 3, anhydrate at 0% RH, listed as Anhydrate): 3.05%
- Percent Degradants ([2]; 1 month, Lot 1, anhydrate 0% RH, listed as Anhydrate): 3.12%
- Percent Degradants ([2]; 1 month, Lot 2, anhydrate 0% RH, listed as Anhydrate): 3.39%
- Percent Degradants ([2]; 1 month, Lot 3, anhydrate 0% RH, listed as Anhydrate): 3.96%
- Percent Degradants ([2]; 2 weeks, Lot 1, anhydrate 0% RH, listed as Anhydrate): 1.01%
- Percent Degradants ([2]; 2 weeks, Lot 2, anhydrate 0% RH, listed as Anhydrate): 1.00%
- Percent Degradants ([2]; 2 weeks, Lot 3, anhydrate 0% RH, listed as Anhydrate): 1.32%
- Residual solvent level ([3]; Lot A, Air-circulating dryer, 20-21° C., 58-63% RH (air) 2 hrs, listed as Anhydrate): 697 ppm
- Residual solvent level ([3]; Lot B, Vibro-fluidized bed dryer, 22-28° C., 75 ± 15% RH (nitrogen gas) 4 hrs, listed as Anhydrate): 616 ppm
- Residual solvent level ([3]; Lot C, Fluidized bed granulator, 24-29° C., 75 ± 10% RH (air) 4 hrs, listed as Anhydrate): 750 ppm
- Residual solvent level ([3]; Lot D, Vibro-fluidized bed dryer, 19-26° C., 70-71% RH (nitrogen gas) 4 hrs, listed as Anhydrate): 875 ppm
- Residual solvent level ([3]; Lot E, Air-circulating dryer, 19-28° C., 41-71% RH (air) 72 hrs, listed as Anhydrate): 663 ppm
Compound: CC[C@H]1OC(=O)[C@H](C)[C@@H](O[C@H]2C[C@@](C)(OC)[C@@H](O)[C@H](C)O2)[C@H](C)[C@@H](O[C@@H]2O[C@H](C)C[C@H](N(C)C(C)C)[C@H]2O)[C@@]2(C)CC(C)=C(O2)[C@H](C)C(=O)[C@]1(C)OC [Crystal form D anhydrate, [2S, 4R, 5R, 8R, 9S, 10S, 11R, 12R]-9-[(2,6-dideoxy-3-C-methyl-3-O-methyl-α-L-ribo-hexopyranosyl)oxy]-5-ethyl-4-methoxy-2,4,8,10,12,14-hexamethyl-11-[[3,4,6-trideoxy-3-(isopropylmethylamino)-β-D-xylo-hexopyranosyl]oxy]-6,15-dioxabicyclo[10.2.1]pentadec-14(1)-ene-3,7-dione (E)-2-butenedioic acid salt (2:1)]
